Data taken from patent US7915297B2, “Isoxazole derivatives and use thereof” (SK Holdings Co., Ltd., priority 2005, dated 2011).

How the values were obtained:
[1] = test system: Wnt/β-catenin signaling (β-catenin activity) in HEK293 cell line; assay: Cell-based Wnt agonist screening, TCF luciferase reporter, HEK293 (TCF-FL); parameters: species or system human; conditions: Homo sapiens, HEK293, 24 h, % of LiCl (20 mM), 24 h, read-out: Max. Activity (%); for Emax at 30 µM: Conc. 30 μM; for Emax at 120 µM: Conc. 120 μM; for Emax at 15 µM: Conc. 15 μM
Source text: (§1) In order to measure the in vitro activity of compounds of the present invention, two human cancer cell lines, HEK293 and SW480, which have intact Wnt signaling and show APC gene mutation in the Wnt signaling pathway, respectively, were used.
(§2) For evaluating the activity of wnt/β-catenin signaling in the cancer cell lines, gene as illustrated in FIG. 1 having β-catenin-binding sites of the Tcf/Lef transcriptional control protein (5 sites of TCF, 5X TCF) and having a fire fly luficerase as a marker protein ascertainable the activity of 5X TCF was introduced into the cells. Treatment with G418 led monoclones of the cell lines, in which the genes were permanently expressed, so as to construct a cell-based Wnt agonist screening system. […] For comparison with the activity of the isoxazole derivatives as Wnt agonists, lithium chloride (LiCl), acting as a positive control for the cell-based Wnt agonist screening system, was used to determine the expression level of the luciferase, and the results are shown in FIG. 3.
(§3) The cell lines, in which a cell-based Wnt agonist screening system was constructed, were cultured in RPMI 1640 media supplemented with penicillin-streptomycin (100 Units/mL) and heat-inactivated 5% fetal bovine serum under standard culture conditions (5% CO2, 37° C., 100% relative humidity). […] The suspension was diluted with the same medium to adjust the cell count to 8,000˜15,000 cells per well and was moved then in a 96-well microtiter plate. After being incubated for 24 hrs, the cells were treated with various concentrations of the isoxazole derivatives synthesized in Preparation Examples. Incubation for an additional 24 hours was followed by the quantitative analysis of luciferase activity using a Luciferase Assay kit (Promega, U.S.A.) according to the protocol described in the manual provided by the manufacturer. Data on the activities of the isoxazole derivatives thus synthesized are given in Tables 34 to 43, and are expressed as percentages relative to the activity of the positive control LiCl (20 mM), a well-known agonist of Wnt signaling.

[2] = test system: Wnt/β-catenin signaling (β-catenin activity) in SW480 cell line; assay: Cell-based Wnt agonist screening, TCF luciferase reporter, SW480 (TCF-FL); parameters: species or system human; conditions: Homo sapiens, % of LiCl (20 mM), 24 h, read-out: Max. Activity (%); for Emax at 30 µM: Con. 30 μM; for Emax at 60 µM: Con. 60 μM; for Emax at 120 µM: Con. 120 μM
Source text: as §1, §2, §3

**Q.** Which results are given for `O=C(NCc1cccnc1)c1cc(-c2ccco2)on1` [Derivative (8), 5-furan-2-yl-isoxazole-3-carboxylic acid (pyridin-3-ylmethyl)-amide]?
**A.** Emax at 30 µM [1]: < 20%; Emax at 30 µM [2]: < 20%

**Q.** `O=C(NCc1ccncc1)c1cc(-c2ccco2)on1` [Derivative (9), 5-furan-2-yl-isoxazole-3-carboxylic acid (pyridin-4-ylmethyl)-amide] was tested. Which Emax at 30 µM [1] did it give?
**A.** Its Emax at 30 µM is < 20%.

**Q.** What about the Emax at 30 µM [2] of the same compound?
**A.** Its Emax at 30 µM is < 20%.

**Q.** Which results are given for `O=C(NCCc1cccnc1)c1cc(-c2ccco2)on1` [Derivative (11), 5-furan-2-yl-isoxazole-3-carboxylic acid (2-pyridin-3-yl-ethyl)-amide]?
**A.** Emax at 30 µM [1]: 61%; Emax at 60 µM [2]: 625%

**Q.** What does the source list for `O=C(NCCc1ccccc1F)c1cc(-c2ccco2)on1` [Derivative (16), 5-furan-2-yl-isoxazole-3-carboxylic acid [2-(2-fluoro-phenyl)-ethyl]-amide]?
**A.** Emax at 30 µM [1]: < 20%; Emax at 30 µM [2]: 327%

**Q.** With `O=C(NCCc1cccc(F)c1)c1cc(-c2ccco2)on1` [Derivative (17), 5-furan-2-yl-isoxazole-3-carboxylic acid [2-(3-fluoro-phenyl)-ethyl]-amide] as the compound, how does the Emax at 30 µM [1] read?
**A.** Its Emax at 30 µM is < 20%.

**Q.** And the Emax at 60 µM [2]?
**A.** The Emax at 60 µM was 200%.

**Q.** For `O=C(NCCc1ccc(F)cc1)c1cc(-c2ccco2)on1` [Derivative (18), 5-furan-2-yl-isoxazole-3-carboxylic acid [2-(4-fluoro-phenyl)-ethyl]-amide], which Emax at 30 µM [1] is on record?
**A.** The Emax at 30 µM was < 20%.

**Q.** And the Emax at 15 µM ([2]; Con. 15 μM)?
**A.** The Emax at 15 µM was 149%.

**Q.** `COc1cccc(CCNC(=O)c2cc(-c3ccco3)on2)c1` [Derivative (20), 5-furan-2-yl-isoxazole-3-carboxylic acid [2-(3-methoxy-phenyl)-ethyl]-amide] was tested. Which Emax at 30 µM [1] did it give?
**A.** The Emax at 30 µM was < 20%.

**Q.** And the Emax at 60 µM [2]?
**A.** The Emax at 60 µM was 528%.

**Q.** What does the source list for `O=C(NCCc1cccc(O)c1)c1cc(-c2ccco2)on1` [Derivative (23), 5-furan-2-yl-isoxazole-3-carboxylic acid [2-(3-hydroxy-phenyl)-ethyl]-amide]?
**A.** Emax at 30 µM [1]: < 20%; Emax at 30 µM [2]: < 20%

**Q.** Which results are given for `O=C(NCCc1ccc(Br)cc1)c1cc(-c2ccco2)on1` [Derivative (25), 5-furan-2-yl-isoxazole-3-carboxylic acid [2-(4-bromo-phenyl)-ethyl]-amide]?
**A.** Emax at 30 µM [1]: < 20%; Emax at 120 µM [2]: 223%

**Q.** `Nc1ccc(CCNC(=O)c2cc(-c3ccco3)on2)cc1` [Derivative (26), 5-furan-2-yl-isoxazole-3-carboxylic acid [2-(4-amino-phenyl)-ethyl]-amide] was tested. Which Emax at 30 µM [1] did it give?
**A.** Its Emax at 30 µM is < 20%.

**Q.** And the Emax at 30 µM [2]?
**A.** The Emax at 30 µM was < 20%.

**Q.** How did the Emax at 30 µM [1] turn out when `O=C(NCCc1ccc([N+](=O)[O-])cc1)c1cc(-c2ccco2)on1` [Derivative (27), 5-furan-2-yl-isoxazole-3-carboxylic acid [2-(4-nitro-phenyl)-ethyl]-amide] was run?
**A.** Its Emax at 30 µM is < 20%.

**Q.** What about the Emax at 30 µM [2] of the same compound?
**A.** Its Emax at 30 µM is < 20%.

**Q.** `O=C(NCCc1ccc2c(c1)OCO2)c1cc(-c2ccco2)on1` [Derivative (29), 5-furan-2-yl-isoxazole-3-carboxylic acid (2-benzo[1,3]dioxol-5-yl-ethyl)-amide] was tested. Which Emax at 30 µM [1] did it give?
**A.** Its Emax at 30 µM is < 20%.

**Q.** What about the Emax at 30 µM [2] of the same compound?
**A.** The Emax at 30 µM was < 20%.

**Q.** Which results are given for `O=C(O)c1ccc(CCNC(=O)c2cc(-c3ccco3)on2)cc1` [Derivative (32), 4-{2-[(5-furan-2-yl-isoxazole-3-carbonyl)-amino]-ethyl}-benzoic acid]?
**A.** Emax at 120 µM [1]: 52%; Emax at 120 µM [2]: 789%

**Q.** What does the source list for `O=C(NCCn1ccnc1)c1cc(-c2ccco2)on1` [Derivative (33), 5-furan-2-yl-isoxazole-3-carboxylic acid (2-imidazol-1-yl-ethyl)-amide]?
**A.** Emax at 15 µM [1]: 37%; Emax at 120 µM [2]: 580%

**Q.** For `O=C(NCCCCn1ccnc1)c1cc(-c2ccco2)on1` [Derivative (34), 5-furan-2-yl-isoxazole-3-carboxylic acid (4-imidazol-1-yl-butyl)-amide], which Emax at 120 µM [1] is on record?
**A.** Its Emax at 120 µM is 44%.

**Q.** What about the Emax at 120 µM [2] of the same compound?
**A.** Its Emax at 120 µM is 120%.

**Q.** What does the source list for `Cc1cn(CCNC(=O)c2cc(-c3ccco3)on2)cn1` [Derivative (37), 5-furan-2-yl-isoxazole-3-carboxylic acid [2-(4-methyl-imidazol-1-yl)-ethyl]-amide]?
**A.** Emax at 120 µM [1]: 44%; Emax at 120 µM [2]: 296%

**Q.** What does the source list for `O=C(NCCCn1ccnn1)c1cc(-c2ccco2)on1` [Derivative (49), 5-furan-2-yl-isoxazole-3-carboxylic acid (3-[1,2,3]triazol-1-yl-propyl)-amide]?
**A.** Emax at 30 µM [1]: < 20%; Emax at 30 µM [2]: < 20%

**Q.** `O=C(NCCCn1ncnn1)c1cc(-c2ccco2)on1` [Derivative (53), 5-furan-2-yl-isoxazole-3-carboxylic acid (3-tetrazol-2-yl-propyl)-amide] was tested. Which Emax at 30 µM [1] did it give?
**A.** The Emax at 30 µM was < 20%.

**Q.** What about the Emax at 30 µM [2] of the same compound?
**A.** Its Emax at 30 µM is < 20%.

**Q.** How did the Emax at 15 µM [1] turn out when `Cc1cn(CCCNC(=O)c2cc(-c3ccco3)on2)cn1` [Derivative (56), 5-furan-2-yl-isoxazole-3-carboxylic acid [3-(4-methyl-imidazol-1-yl)-propyl]-amide] was run?
**A.** The Emax at 15 µM was 58%.

**Q.** What about the Emax at 30 µM [1] of the same compound?
**A.** The Emax at 30 µM was < 20%.

**Q.** And the Emax at 600 µM ([2]; Con. 600 μM)?
**A.** Its Emax at 600 µM is 650%.

**Q.** Which Emax at 30 µM [1] does the source give for `Cc1cncn1CCCNC(=O)c1cc(-c2ccco2)on1` [Derivative (57), 5-furan-2-yl-isoxazole-3-carboxylic acid [3-(5-methyl-imidazol-1-yl)-propyl]amide] here?
**A.** The Emax at 30 µM was < 20%.

**Q.** And the Emax at 30 µM [2]?
**A.** The Emax at 30 µM was < 20%.

**Q.** Which Emax at 30 µM [1] does the source give for `COC(=O)c1cn(CCCNC(=O)c2cc(-c3ccco3)on2)cn1` [Derivative (58), 1-{3-[(5-furan-2-yl-isoxazole-3-carbonyl)-amino]-propyl}-1H-imidazole-4-carboxylic acid methyl ester] here?
**A.** The Emax at 30 µM was < 20%.

**Q.** What about the Emax at 30 µM [2] of the same compound?
**A.** Its Emax at 30 µM is 270%.

**Q.** Which results are given for `O=C(O)c1cn(CCCNC(=O)c2cc(-c3ccco3)on2)cn1` [Derivative (59), 1-{3-[(5-furan-2-yl-isoxazole-3-carbonyl)-amino]-propyl}-1H-imidazole-4-carboxylic acid]?
**A.** Emax at 30 µM [1]: < 20%; Emax at 60 µM [2]: 592%

**Q.** Which results are given for `O=C(NCCCn1cnc(Br)c1)c1cc(-c2ccco2)on1` [Derivative (60), 5-furan-2-yl-isoxazole-3-carboxylic acid [3-(4-bromo-imidazol-1-yl)-propyl]-amide]?
**A.** Emax at 30 µM [1]: < 20%; Emax at 30 µM [2]: 196%

**Q.** With `Cc1c(C(=O)NCCCn2ccnc2)noc1-c1ccco1` [Derivative (65), 5-furan-2-yl-4-methyl-isoxazole-3-carboxylic acid (3-imidazol-1-yl-propyl)-amide] as the compound, how does the Emax at 30 µM [1] read?
**A.** Its Emax at 30 µM is < 20%.

**Q.** And the Emax at 30 µM [2]?
**A.** Its Emax at 30 µM is < 20%.

**Q.** Which results are given for `CCc1c(C(=O)NCCCn2ccnc2)noc1-c1ccco1` [Derivative (66), 4-ethyl-5-furan-2-yl-isoxazole-3-carboxylic acid (3-imidazol-1-yl-propyl)-amide]?
**A.** Emax at 30 µM [1]: < 20%; Emax at 30 µM [2]: < 20%

**Q.** How did the Emax at 30 µM [1] turn out when `O=C(NCCCn1ccnc1)c1noc(-c2ccco2)c1Cc1ccccc1` [Derivative (67), 4-benzyl-5-furan-2-yl-isoxazole-3-carboxylic acid (3-imidazol-1-yl-propyl)-amide] was run?
**A.** Its Emax at 30 µM is < 20%.

**Q.** What about the Emax at 30 µM [2] of the same compound?
**A.** Its Emax at 30 µM is < 20%.

**Q.** For `O=C(NCCCn1ccnc1)c1cc(-c2ccccc2)on1` [Derivative (68), 5-phenyl-isoxazole-3-carboxylic acid (3-imidazol-1-yl-propyl)-amide], which Emax at 30 µM [1] is on record?
**A.** Its Emax at 30 µM is 47%.

**Q.** And the Emax at 60 µM [2]?
**A.** The Emax at 60 µM was 486%.

**Q.** With `O=C(NCCn1ccnc1)c1cc(-c2ccccc2)on1` [Derivative (69), 5-phenyl-isoxazole-3-carboxylic acid (2-imidazol-1-yl-ethyl)-amide] as the compound, how does the Emax at 30 µM [1] read?
**A.** The Emax at 30 µM was < 20%.

**Q.** And the Emax at 30 µM [2]?
**A.** Its Emax at 30 µM is < 20%.

**Q.** `O=C(NCCc1ccccn1)c1cc(-c2ccccc2)on1` [Derivative (70), 5-phenyl-isoxazole-3-carboxylic acid (2-pyridin-2-yl-ethyl)-amide] was tested. Which Emax at 60 µM ([1]; Conc. 60 μM) did it give?
**A.** The Emax at 60 µM was 51%.

**Q.** What about the Emax at 120 µM [2] of the same compound?
**A.** The Emax at 120 µM was 789%.

**Q.** How did the Emax at 30 µM [1] turn out when `O=C(NCCCn1ccnc1)c1cc(-c2ccccn2)on1` [Derivative (75), 5-pyridin-2-yl-isoxazole-3-carboxylic acid (3-imidazol-1-yl-propyl)-amide] was run?
**A.** Its Emax at 30 µM is < 20%.

**Q.** And the Emax at 30 µM [2]?
**A.** Its Emax at 30 µM is < 20%.

**Q.** For `O=C(NCCCn1ccnc1)c1cc(-c2cccnc2)on1` [Derivative (76), 5-pyridin-3-yl-isoxazole-3-carboxylic acid (3-imidazol-1-yl-propyl)-amide], which Emax at 30 µM [1] is on record?
**A.** The Emax at 30 µM was < 20%.

**Q.** What about the Emax at 30 µM [2] of the same compound?
**A.** Its Emax at 30 µM is < 20%.
